The source of these data is article PMC9421653 (Journal of Medicinal Chemistry, 2022).

For test [1], the target named is GPR84-Gαi2 fusion protein, Phe335Ala (Homo sapiens, UniProt Q9NQS5, F335A). Description: [35S]GTPγS binding, GPR84-Gαi2 fusion protein, Phe335Ala. The following applies: Phe335 to Ala, versus wild type. A general note: Binding of GTPγS marks nucleotide exchange on a G protein.
The target in a further test is T1, human FFAR2 (Homo sapiens, UniProt O15552).
T1 construct: expressed in transfected cells; host or cells: Flp-In T-REx 293 cells, induced; membrane preparations
T1 sequence (O15552 1-330): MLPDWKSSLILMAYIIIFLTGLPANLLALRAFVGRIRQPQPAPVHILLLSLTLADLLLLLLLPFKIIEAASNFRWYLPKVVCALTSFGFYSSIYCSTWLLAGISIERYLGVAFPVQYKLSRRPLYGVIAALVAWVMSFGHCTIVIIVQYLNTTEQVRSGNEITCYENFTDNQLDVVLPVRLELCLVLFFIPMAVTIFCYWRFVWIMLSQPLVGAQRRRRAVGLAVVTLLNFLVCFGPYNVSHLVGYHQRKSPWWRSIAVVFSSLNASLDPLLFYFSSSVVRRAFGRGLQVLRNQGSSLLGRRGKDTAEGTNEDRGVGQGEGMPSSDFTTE
Description: [35S]GTPγS binding, block of C3 (propionate) at FFAR2. Format: biochemical. Conditions: tested at 10 μM.

Another test concerns the target T2, human FFAR3 (Homo sapiens, UniProt O14843).
T2 construct: expressed in transfected cells; host or cells: Flp-In T-REx 293 cells, induced; membrane preparations
T2 sequence (O14843 1-346): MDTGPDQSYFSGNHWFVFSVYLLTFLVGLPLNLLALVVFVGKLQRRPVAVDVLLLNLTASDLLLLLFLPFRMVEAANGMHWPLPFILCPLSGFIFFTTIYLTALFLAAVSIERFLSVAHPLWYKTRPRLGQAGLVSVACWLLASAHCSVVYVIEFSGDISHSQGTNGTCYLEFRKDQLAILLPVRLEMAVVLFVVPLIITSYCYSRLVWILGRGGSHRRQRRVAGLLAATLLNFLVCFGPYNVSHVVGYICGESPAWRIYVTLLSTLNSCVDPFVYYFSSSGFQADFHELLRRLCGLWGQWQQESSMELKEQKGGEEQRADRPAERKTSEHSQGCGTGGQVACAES
Description: [35S]GTPγS binding, block of C3 (propionate) at FFAR3. Format: biochemical. The following applies: tested at 10 μM.

The target in test [2] is GPR84-Gαi2 fusion protein, Trp360Ala (Homo sapiens, UniProt Q9NQS5, W360A). The test is described as follows: [35S]GTPγS binding, GPR84-Gαi2 fusion protein, Trp360Ala. Conditions: Trp360 to Ala, versus wild type.
GPR84-Gαi2 fusion protein, Trp360Ala, sequence (Q9NQS5 whole entry W360A, the tested form may be a part): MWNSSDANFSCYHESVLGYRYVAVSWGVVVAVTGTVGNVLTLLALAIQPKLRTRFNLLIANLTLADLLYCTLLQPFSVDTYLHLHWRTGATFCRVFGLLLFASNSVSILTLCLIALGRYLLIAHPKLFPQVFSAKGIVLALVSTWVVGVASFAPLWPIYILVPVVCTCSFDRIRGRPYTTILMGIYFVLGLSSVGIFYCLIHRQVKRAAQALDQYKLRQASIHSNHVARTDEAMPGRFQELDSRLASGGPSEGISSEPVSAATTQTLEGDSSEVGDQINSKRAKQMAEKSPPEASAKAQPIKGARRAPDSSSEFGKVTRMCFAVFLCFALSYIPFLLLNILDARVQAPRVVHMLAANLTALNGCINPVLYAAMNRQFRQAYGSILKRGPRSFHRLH
GPR84-Gαi2 fusion protein, Trp360Ala, sequence (P04899 2-355 partner): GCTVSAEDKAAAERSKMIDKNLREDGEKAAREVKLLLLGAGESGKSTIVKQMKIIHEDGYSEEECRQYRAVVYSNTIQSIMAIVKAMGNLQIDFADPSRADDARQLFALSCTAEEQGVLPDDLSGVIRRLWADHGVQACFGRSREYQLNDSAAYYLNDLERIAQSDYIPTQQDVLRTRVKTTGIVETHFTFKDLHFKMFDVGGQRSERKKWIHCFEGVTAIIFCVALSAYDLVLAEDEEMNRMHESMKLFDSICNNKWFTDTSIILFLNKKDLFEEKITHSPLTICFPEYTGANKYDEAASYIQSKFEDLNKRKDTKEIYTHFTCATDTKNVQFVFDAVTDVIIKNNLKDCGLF
Test [3] concerns the target GPR84-Gαi2 fusion protein, Phe101Ala (Homo sapiens, UniProt Q9NQS5, F101A). The test is described as follows: [35S]GTPγS binding, GPR84-Gαi2 fusion protein, Phe101Ala. Conditions: Phe101 to Ala, versus wild type.
A further test deals with mouse GPR84. Conditions: cited from earlier work.
The target in the next test is T3, human GPR84 (Homo sapiens, UniProt P04899+Q9NQS5).
T3 construct: expressed in transfected cells; host or cells: Flp-In T-REx 293 cells, doxycycline-induced; membrane preparations
T3 sequence (Q9NQS5+P04899 fused): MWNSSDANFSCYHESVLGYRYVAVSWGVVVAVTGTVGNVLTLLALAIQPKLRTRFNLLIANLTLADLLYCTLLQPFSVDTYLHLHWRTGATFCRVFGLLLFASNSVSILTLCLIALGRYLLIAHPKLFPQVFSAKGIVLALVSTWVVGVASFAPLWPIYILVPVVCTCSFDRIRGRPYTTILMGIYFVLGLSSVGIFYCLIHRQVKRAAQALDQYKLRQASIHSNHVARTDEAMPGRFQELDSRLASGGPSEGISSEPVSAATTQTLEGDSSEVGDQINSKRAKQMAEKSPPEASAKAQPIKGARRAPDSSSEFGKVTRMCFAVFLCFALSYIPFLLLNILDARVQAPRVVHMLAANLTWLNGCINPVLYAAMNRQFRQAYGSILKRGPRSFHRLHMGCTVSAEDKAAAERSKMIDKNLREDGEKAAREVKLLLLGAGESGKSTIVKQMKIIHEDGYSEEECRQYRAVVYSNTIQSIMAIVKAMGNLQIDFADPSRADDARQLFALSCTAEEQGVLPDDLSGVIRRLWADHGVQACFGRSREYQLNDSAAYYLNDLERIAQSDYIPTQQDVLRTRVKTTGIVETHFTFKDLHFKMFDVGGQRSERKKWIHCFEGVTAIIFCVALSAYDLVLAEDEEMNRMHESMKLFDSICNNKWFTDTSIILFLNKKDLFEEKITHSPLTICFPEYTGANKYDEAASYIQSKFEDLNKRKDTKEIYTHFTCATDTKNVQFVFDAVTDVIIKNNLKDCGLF
The test is described as follows: biochemical. Format: biochemical. The following applies: [35S]GTPγS assay; negative log of the IC50 in molar; mean ± SEM.

The structures appear in SMILES notation. Entries after “also recorded” stand apart in the source; their conditions may differ.

GPR84-Gαi2 fusion protein, Phe101Ala, sequence (Q9NQS5 whole entry F101A, the tested form may be a part): as the sequence (Q9NQS5 whole entry W360A, the tested form may be a part) above, with F101A, A360W counted along it
GPR84-Gαi2 fusion protein, Phe101Ala, sequence (P04899 2-355 partner): as the sequence (P04899 2-355 partner) above
GPR84-Gαi2 fusion protein, Phe335Ala, sequence (Q9NQS5 whole entry F335A, the tested form may be a part): as the sequence (Q9NQS5 whole entry W360A, the tested form may be a part) above, with F335A, A360W counted along it
GPR84-Gαi2 fusion protein, Phe335Ala, sequence (P04899 2-355 partner): as the sequence (P04899 2-355 partner) above

As to `COc1ccc(-c2nnc(Cc3c[nH]c4ccccc34)nc2-c2ccc(OC)cc2)cc1` [Compound 1, 3-((5,6-Bis(4-methoxyphenyl)-1,2,4-triazin-3-yl)methyl)-1H-indole], the “affinity to block effects of the allosteric agonist PSB-16671” value in test [1], in test [2] and in test [3] was “substantial loss of affinity” each time. Also, the “block of the actions of the C3 fatty acid propionate at FFAR2” value on human FFAR2 is recorded as “no ability to block; also recorded: did not block”. The “block of the actions of the C3 fatty acid propionate at FFAR3” value on human FFAR3 is listed as “no ability to block; also recorded: did not block”. Besides, in the test on mouse GPR84, the “antagonism of mouse GPR84” value is listed as “unable to antagonize”. Moreover, the “GTPγS (pIC50)” value at human GPR84 amounted to 7.93 ± 0.21.
